Source: ChEMBL document CHEMBL1201862, “PubChem BioAssay data set” (2004)
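Assay format: 96-well plates, 48-hour exposure. At the GI50, growth is halved.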 Activity calls are given as the source filed them. No stated cut-off is given here; in the data, active = GI50 up to about 1.1 µM and inactive = higher.

Experiments:
Test in all cases: NCI-60 cell line screen, 48 h
MCF7 = tested on: MCF7
SK-OV-3 = tested on: SK-OV-3
UACC-257 = tested on: UACC-257
MOLT-4 = tested on: MOLT-4
COLO 205 = tested on: COLO 205
HOP-62 = tested on: HOP-62
786-0 = tested on: 786-0
KM12 = tested on: KM12
NCI-H460 = tested on: NCI-H460
MDA-N = tested on: MDA-N
SR = tested on: SR
ACHN = tested on: ACHN
IGROV-1 = tested on: IGROV-1
UACC-62 = tested on: UACC-62
LOX IMVI = tested on: LOX IMVI
UO-31 = tested on: UO-31
TK-10 = tested on: TK-10
SNB-75 = tested on: SNB-75
CCRF-CEM = tested on: CCRF-CEM
K562 = tested on: K562

| SMILES | GI50 (MCF7) | GI50 (SK-OV-3) | GI50 (UACC-257) | GI50 (MOLT-4) | GI50 (COLO 205) | GI50 (HOP-62) | GI50 (786-0) | GI50 (KM12) | GI50 (NCI-H460) | GI50 (MDA-N) | GI50 (SR) | GI50 (ACHN) | GI50 (IGROV-1) | GI50 (UACC-62) | GI50 (LOX IMVI) | GI50 (UO-31) | GI50 (TK-10) | GI50 (SNB-75) | GI50 (CCRF-CEM) | GI50 (K562) |
| --- | --- | --- | --- | --- | --- | --- | --- | --- | --- | --- | --- | --- | --- | --- | --- | --- | --- | --- | --- | --- |
| Oc1c(CN2CCN(c3ccccc3)CC2)cc(Br)c2cccnc12 | 0.966 µM (active) | 3.21 µM (inactive) | 2.96 µM (inactive) | 0.349 µM (active) | 29.6 µM (inactive) | 1.33 µM (inactive) | 1.4 µM (inactive) | 1.56 µM (inactive) | 0.244 µM (active) | 0.855 µM (active) | 0.284 µM (active) | 0.621 µM (active) | 0.834 µM (active) | 1.01 µM (active) | 0.52 µM (active) | 0.393 µM (active) | 3.61 µM (inactive) | 3.78 µM (inactive) | 0.271 µM (active) |  |
| CCC(=O)OCc1ccc2oc(=O)c(C(=O)Oc3cncc(Cl)c3)cc2c1 | 76.4 µM (inactive) | > 100 µM (inactive) | > 100 µM (inactive) | 30 µM (inactive) | 71.6 µM (inactive) | > 100 µM (inactive) | 74.1 µM (inactive) | > 100 µM (inactive) | > 100 µM (inactive) | > 100 µM (inactive) | 20.8 µM (inactive) | > 100 µM (inactive) | > 100 µM (inactive) | 52.1 µM (inactive) | > 100 µM (inactive) | 83.8 µM (inactive) | 97.5 µM (inactive) | 79.8 µM (inactive) | < 0.01 µM (active) | 20.6 µM (inactive) |
| O=C1NC(=O)C(c2c[nH]c3cc(Br)ccc23)=C1c1cnc[nH]1 | 21.7 µM (inactive) | 13.1 µM (inactive) | 16 µM (inactive) | 23.9 µM (inactive) | 15.6 µM (inactive) | 19.1 µM (inactive) | 50 µM (inactive) | 21.1 µM (inactive) | 24 µM (inactive) | 35.5 µM (inactive) | 31.3 µM (inactive) | 43.7 µM (inactive) | 28.4 µM (inactive) |  | 19.5 µM (inactive) | 17.7 µM (inactive) | 34.9 µM (inactive) | > 100 µM (inactive) | 34.8 µM (inactive) | 25.6 µM (inactive) |
| CN(C)CCc1c2c(nc3ccccc13)C(=O)c1cccnc1C2=O | 0.122 µM (active) | 0.479 µM (active) | 0.214 µM (active) | 2.57 µM (inactive) | 1.97 µM (inactive) |  | 0.121 µM (active) | 0.173 µM (active) | 0.0826 µM (active) | 0.352 µM (active) | 0.0456 µM (active) | 0.084 µM (active) | 0.542 µM (active) | 0.175 µM (active) | < 0.0476 µM (active) | 0.197 µM (active) | 1.3 µM (inactive) | 0.42 µM (active) | 0.682 µM (active) | 0.154 µM (active) |
| COC(=O)/C=C1/N=C(N(C)/N=C/c2ccccc2)NC1=O | > 100 µM (inactive) | > 100 µM (inactive) | > 100 µM (inactive) | > 100 µM (inactive) | > 100 µM (inactive) | > 100 µM (inactive) | > 100 µM (inactive) | > 100 µM (inactive) | > 100 µM (inactive) | > 100 µM (inactive) | > 100 µM (inactive) |  | > 100 µM (inactive) | > 100 µM (inactive) | > 100 µM (inactive) | > 100 µM (inactive) | > 100 µM (inactive) | > 100 µM (inactive) | > 100 µM (inactive) | > 100 µM (inactive) |
| Cc1oc2c(cc(O)c3ccccc32)c2cccc1-2 | > 100 µM (inactive) | > 100 µM (inactive) | > 100 µM (inactive) | > 100 µM (inactive) | > 100 µM (inactive) | > 100 µM (inactive) | > 100 µM (inactive) | > 100 µM (inactive) | > 100 µM (inactive) | > 100 µM (inactive) | > 100 µM (inactive) | > 100 µM (inactive) |  |  | > 100 µM (inactive) |  | > 100 µM (inactive) | > 100 µM (inactive) | > 100 µM (inactive) |  |
| CN1C(=O)N(C)C2(CCN(CC(CC3OCCO3)c3ccc(F)cc3)CC2)C1=O (configuration not stated) | > 100 µM (inactive) | > 100 µM (inactive) | > 100 µM (inactive) | > 100 µM (inactive) | > 100 µM (inactive) | > 100 µM (inactive) | > 100 µM (inactive) |  |  | > 100 µM (inactive) | > 100 µM (inactive) | > 100 µM (inactive) | > 100 µM (inactive) | > 100 µM (inactive) | > 100 µM (inactive) | > 100 µM (inactive) | > 100 µM (inactive) | > 100 µM (inactive) | > 100 µM (inactive) | > 100 µM (inactive) |
| COc1ccc(C(=O)C(CC2C(=O)CC(C)(C)C(C(=O)C(=O)Nc3c(C)cccc3C)C2=O)c2ccc(OC)cc2)cc1 (configuration not stated) | > 100 µM (inactive) | > 100 µM (inactive) | > 100 µM (inactive) | > 100 µM (inactive) | > 100 µM (inactive) | > 100 µM (inactive) | > 100 µM (inactive) | > 100 µM (inactive) | > 100 µM (inactive) | > 100 µM (inactive) | 22.9 µM (inactive) | > 100 µM (inactive) | > 100 µM (inactive) | > 100 µM (inactive) | > 100 µM (inactive) | 70.1 µM (inactive) | > 100 µM (inactive) | > 100 µM (inactive) | > 100 µM (inactive) |  |
| COC12CCCN1c1ccn(Cc3ccccc3)c(=O)c1C2=O (configuration not stated) | > 100 µM (inactive) | > 100 µM (inactive) | > 100 µM (inactive) | 28.7 µM (inactive) | > 100 µM (inactive) |  | > 100 µM (inactive) | > 100 µM (inactive) | > 100 µM (inactive) | > 100 µM (inactive) | > 100 µM (inactive) | > 100 µM (inactive) | > 100 µM (inactive) | > 100 µM (inactive) | > 100 µM (inactive) | > 100 µM (inactive) | > 100 µM (inactive) | > 100 µM (inactive) | 82 µM (inactive) | > 100 µM (inactive) |
| O=C(Cc1cc(=O)oc2cc(O)ccc12)N/N=C/c1ccc(N(CCCl)CCCl)cc1 | 14.8 µM (inactive) |  | 22.1 µM (inactive) | 15.3 µM (inactive) | 29.2 µM (inactive) | 23.7 µM (inactive) | 18.8 µM (inactive) | 32.4 µM (inactive) | 13.8 µM (inactive) | 23.4 µM (inactive) | 14.2 µM (inactive) | 15.8 µM (inactive) | 18.8 µM (inactive) | 6.19 µM (inactive) | 16.6 µM (inactive) | 22.2 µM (inactive) |  | 21.7 µM (inactive) | 15 µM (inactive) | 23.5 µM (inactive) |
| COc1cc(Nc2ccc3c(c2)CCC3)nc(OC)n1 | 29.6 µM (inactive) | 50 µM (inactive) | 44.4 µM (inactive) | 0.0144 µM (active) | 37.3 µM (inactive) | 54.6 µM (inactive) | 37.2 µM (inactive) | 27.9 µM (inactive) | 30.8 µM (inactive) | 26.1 µM (inactive) | 20.5 µM (inactive) | 28.2 µM (inactive) | 31.4 µM (inactive) | 51.3 µM (inactive) | 45.7 µM (inactive) |  | 28.2 µM (inactive) | 18.9 µM (inactive) | 49.7 µM (inactive) |  |
| Cc1ccc2[nH]c(=O)c(-c3cnc(O)nn3)c(O)c2c1 | 36.9 µM (inactive) | > 100 µM (inactive) | 57.4 µM (inactive) | 5.06 µM (inactive) | > 100 µM (inactive) | > 100 µM (inactive) | > 100 µM (inactive) | > 100 µM (inactive) | > 100 µM (inactive) | 17.7 µM (inactive) | > 100 µM (inactive) | 19.7 µM (inactive) | > 100 µM (inactive) | 26.4 µM (inactive) | > 100 µM (inactive) | 16.6 µM (inactive) | > 100 µM (inactive) | > 100 µM (inactive) | > 100 µM (inactive) | 1.8 µM (inactive) |
| O=C1c2cn[nH]c2N=C(Nc2ccccc2)C1/N=C/c1ccc([N+](=O)[O-])cc1 (configuration not stated) | > 10 µM (inactive) |  | > 10 µM (inactive) | > 10 µM (inactive) |  |  | > 10 µM (inactive) | > 10 µM (inactive) | > 10 µM (inactive) | > 10 µM (inactive) | > 10 µM (inactive) | > 10 µM (inactive) |  |  | > 10 µM (inactive) | > 10 µM (inactive) | > 10 µM (inactive) | > 10 µM (inactive) | > 10 µM (inactive) | > 10 µM (inactive) |
| C=CCC(CNC(=O)OCc1ccccc1)OC(=O)OCc1ccccc1 (configuration not stated) | 39.1 µM (inactive) | > 100 µM (inactive) | 73.3 µM (inactive) | 25.8 µM (inactive) | 39.1 µM (inactive) | > 100 µM (inactive) | 91.2 µM (inactive) | 48.1 µM (inactive) | > 100 µM (inactive) | 47.1 µM (inactive) | 21.8 µM (inactive) | > 100 µM (inactive) | > 100 µM (inactive) | 93.5 µM (inactive) | > 100 µM (inactive) | > 100 µM (inactive) | > 100 µM (inactive) | > 100 µM (inactive) | 47.4 µM (inactive) | 37.3 µM (inactive) |
| O=C1NC(N2CCOCC2)=N/C1=C\c1ccc(Cl)cc1 | > 100 µM (inactive) | > 100 µM (inactive) | > 100 µM (inactive) | > 100 µM (inactive) | > 100 µM (inactive) | > 100 µM (inactive) | > 100 µM (inactive) | > 100 µM (inactive) |  | > 100 µM (inactive) | > 100 µM (inactive) | > 100 µM (inactive) | > 100 µM (inactive) | > 100 µM (inactive) | > 100 µM (inactive) | > 100 µM (inactive) | > 100 µM (inactive) | 60.8 µM (inactive) | > 100 µM (inactive) |  |
